Measurements from patent US9133158B2, “Bicyclic dihydroisoquinoline-1-one derivatives” (Hoffmann-La Roche Inc., priority 2011, dated 2015).

What was measured:
human CYP11B2 = target: T1, human CYP11B2 (Homo sapiens, UniProt P19099); assay: G-402 cellular enzyme assay, human CYP11B2 (aldosterone release, HTRF); format: cell-based; settings: G-402 cells, 1 μM Deoxycorticosterone
T1 construct: expressed in transfected cells
T1 sequence (P19099 25-503): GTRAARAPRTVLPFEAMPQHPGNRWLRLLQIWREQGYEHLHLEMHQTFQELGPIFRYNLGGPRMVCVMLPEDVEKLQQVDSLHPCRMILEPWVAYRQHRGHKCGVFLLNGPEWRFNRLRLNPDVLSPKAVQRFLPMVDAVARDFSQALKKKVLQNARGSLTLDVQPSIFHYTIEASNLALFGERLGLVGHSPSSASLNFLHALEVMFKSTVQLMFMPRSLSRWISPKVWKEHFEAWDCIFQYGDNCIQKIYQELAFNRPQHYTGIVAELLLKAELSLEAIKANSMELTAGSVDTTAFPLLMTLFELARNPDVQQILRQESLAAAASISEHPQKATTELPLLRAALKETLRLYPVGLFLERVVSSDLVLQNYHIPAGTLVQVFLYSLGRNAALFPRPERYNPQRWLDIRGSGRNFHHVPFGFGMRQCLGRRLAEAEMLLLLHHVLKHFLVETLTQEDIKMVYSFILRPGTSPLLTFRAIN
In short: (§1)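 G-402 cells stably expressing human CYP11B1 or CYP11B2 incubated 16 h in DMEM/F12 with 2.5% charcoal-treated FCS, compound, and 1 μM 11-deoxycortisol (B1) or 1 μM deoxycorticosterone (B2). Cortisol (B1) or aldosterone (B2) in supernatant measured by HTRF; EC50 from 4-parameter MMF fit.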

human CYP11B1 = target: T2, human CYP11B1 (Homo sapiens, UniProt P15538); assay: G-402 cellular enzyme assay, human CYP11B1 (cortisol release, HTRF); format: cell-based; settings: G-402 cells, 1 μM Deoxycortisol
T2 construct: expressed in transfected cells
T2 sequence (P15538 25-503): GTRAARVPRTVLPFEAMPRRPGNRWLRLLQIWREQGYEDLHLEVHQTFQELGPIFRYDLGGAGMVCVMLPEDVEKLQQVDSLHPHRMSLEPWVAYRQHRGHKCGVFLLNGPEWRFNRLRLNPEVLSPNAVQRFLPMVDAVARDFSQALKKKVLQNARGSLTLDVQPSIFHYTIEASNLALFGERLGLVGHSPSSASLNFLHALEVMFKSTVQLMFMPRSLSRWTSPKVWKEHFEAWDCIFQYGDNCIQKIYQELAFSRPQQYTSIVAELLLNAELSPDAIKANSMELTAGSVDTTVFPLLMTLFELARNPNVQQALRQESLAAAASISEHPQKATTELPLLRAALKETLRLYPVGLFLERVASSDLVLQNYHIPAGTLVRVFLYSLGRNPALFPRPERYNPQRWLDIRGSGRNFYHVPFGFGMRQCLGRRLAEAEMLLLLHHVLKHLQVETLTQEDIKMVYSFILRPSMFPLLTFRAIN
In short: as §1

EC50 (human CYP11B2) | EC50 (human CYP11B1) | SMILES
42.9 nM | 475 nM | CCC1c2cc(Cl)ccc2C(=O)N1c1cncc(OC(F)F)c1 (stereo not drawn) [Example 282, 5-Chloro-2-(5-difluoromethoxy-pyridin-3-yl)-3-ethyl-2,3-dihydro-isoindol-1-one]
66.7 nM | 633 nM | CCC1c2cc(Cl)ccc2C(=O)N1c1cncc(C(C)O)c1 (stereo not drawn) [Example 283, 5-Chloro-3-ethyl-2-[5-(1-hydroxy-ethyl)-pyridin-3-yl]-2,3-dihydro-isoindol-1-one]
20.5 nM | 249 nM | CCC1c2cc(Cl)ccc2C(=O)N1c1cnccc1Cl (stereo not drawn) [Example 284, 5-Chloro-2-(4-chloro-pyridin-3-yl)-3-ethyl-2,3-dihydro-isoindol-1-one]
7.6 nM | 356 nM | CC1(C)c2cc(Cl)ccc2C(=O)N1c1cnccc1Cl [Example 285, 5-Chloro-2-(4-chloro-pyridin-3-yl)-3,3-dimethyl-2,3-dihydro-isoindol-1-one]
265 nM | 3040 nM | O=C1c2ccc(Cl)cc2CCN1c1cncc2cccc([N+](=O)[O-])c12 [Example 286, 6-Chloro-5′-nitro-3,4-dihydro-[2,4′]biisoquinolinyl-1-one]
555 nM | 6410 nM | O=C1c2ccc(Cl)cc2CCN1c1cncc2c([N+](=O)[O-])cccc12 [Example 287, 6-Chloro-8′-nitro-3,4-dihydro-[2,4′]biisoquinolinyl-1-one]
539 nM | 8870 nM | Nc1cccc2c(N3CCc4cc(Cl)ccc4C3=O)cncc12 [Example 288, 8′-Amino-6-chloro-3,4-dihydro-[2,4′]biisoquinolinyl-1-one]
70.6 nM | 186 nM | CCS(=O)(=O)Nc1cccc2c(N3CCc4cc(Cl)ccc4C3=O)cncc12 [Example 289, Ethanesulfonic acid (6-chloro-1-oxo-3,4-dihydro-1H-[2,4′]biisoquinolinyl-8′-yl)-amide]
101 nM | 3910 nM | O=C1c2ccc(Cl)cc2C2(CC2)N1c1cncc(F)c1 [Example 290, 6′-Chloro-2′-(5-fluoropyridin-3-yl)spiro[cyclo-propane-1,1′-isoindol]-3′(2′H)-one]
3.2 nM | 122 nM | O=C1c2ccc(Cl)cc2C2(CC2)N1c1cncc(OC(F)F)c1 [Example 291, 6′-Chloro-2′-[5-(difluoromethoxy)pyridin-3-yl]spiro[cyclo-propane-1,1′-isoindol]-3′(2′H)-one]
515 nM | 36200 nM | CC1(C)c2nc(Cl)ccc2C(=O)N1c1cncc(F)c1 [Example 292, 2-Chloro-6-(5-fluoro-pyridin-3-yl)-7,7-dimethyl-6,7-dihydro-pyrrolo[3,4-b]pyridin-5-one]
16.4 nM | 285 nM | CC1(C)c2nc(Cl)ccc2C(=O)N1c1cncc(OC(F)F)c1 [Example 293, 2-Chloro-6-(5-difluoromethoxy-pyridin-3-yl)-7,7-dimethyl-6,7-dihydro-pyrrolo[3,4-b]pyridin-5-one]
204 nM | 9850 nM | COc1ccc2c(n1)C(C)(C)N(c1cncc(F)c1)C2=O [Example 294, 6-(5-Fluoro-pyridin-3-yl)-2-methoxy-7,7-dimethyl-6,7-dihydro-pyrrolo[3,4-b] pyridin-5-one]
48.8 nM | 849 nM | COc1ccc2c(n1)C(C)(C)N(c1cncc(OC(F)F)c1)C2=O [Example 295, 6-(5-Difluoromethoxy-pyridin-3-yl)-2-methoxy-7,7-dimethyl-6,7-dihydro-pyrrolo[3,4-b] pyridin-5-one]
132 nM | 4500 nM | O=C1c2ccc(Cl)cc2C2(CC2)N1c1cccnc1 [Example 296, 6′-Chloro-2′-(pyridin-3-yl)spiro[cyclopropane-1,1′-isoindol]-3′(2′H)-one]
207 nM | 12800 nM | O=C1c2ccc(Cl)cc2C(C2CC2)N1c1cncc(F)c1 (stereo not drawn) [Example 297, 5-Chloro-3-cyclopropyl-2-(5-fluoro-pyridin-3-yl)-2,3-dihydro-isoindol-1-one]
175 nM | 13700 nM | CC1(C)c2nc(Cl)ccc2C(=O)N1c1cccnc1 [Example 298, 2-Chloro-7,7-dimethyl-6-pyridin-3-yl-6,7-dihydro-pyrrolo[3,4-b]pyridin-5-one]

EC50 (human CYP11B2) | EC50 (human CYP11B1) | SMILES
787 nM | 48500 nM | CCOc1ccc2c(n1)C(C)(C)N(c1cncc(F)c1)C2=O [Example 299, 2-Ethoxy-6-(5-fluoro-pyridin-3-yl)-7,7-dimethyl-6,7-dihydro-pyrrolo[3,4-b]pyridin-5-one]
216 nM | 14300 nM | COc1ccc2c(n1)C(C)(C)N(c1cccnc1)C2=O [Example 300, 2-Methoxy-7,7-dimethyl-6-pyridin-3-yl-6,7-dihydro-pyrrolo[3,4-b]pyridin-5-one]
161 nM | 32500 nM | O=C1c2ccc(Cl)cc2C(C2CC2)N1c1cccnc1 (stereo not drawn) [Example 301, 5-Chloro-3-cyclopropyl-2-pyridin-3-yl-2,3-dihydro-isoindol-1-one]
93.2 nM | 5190 nM | O=C1c2ccc(Cl)cc2C(C2CC2)N1c1cncc(OC(F)F)c1 (stereo not drawn) [Example 302, 5-Chloro-3-cyclopropyl-2-(5-difluoromethoxy-pyridin-3-yl)-2,3-dihydro-isoindol-1-one]
93.6 nM | 12600 nM | CCOc1ccc2c(n1)C(C)(C)N(c1cncc(OC(F)F)c1)C2=O [Example 303, 6-(5-Difluoromethoxy-pyridin-3-yl)-2-ethoxy-7,7-dimethyl-6,7-dihydro-pyrrolo[3,4-b]pyridin-5-one]
2.4 nM | 78.1 nM | CC(C)Oc1cncc(N2C(=O)c3ccc(Cl)cc3C2(C)C)c1 [Example 304, 5-Chloro-2-(5-isopropoxy-pyridin-3-yl)-3,3-dimethyl-2,3-dihydro-isoindol-1-one]
5.4 nM | 860 nM | O=C1c2ccc(Cl)cc2C2(CC2)N1c1cnccc1Cl [Example 305, 6′-Chloro-2′-(4-chloropyridin-3-yl)spiro[cyclopropane-1,1′-isoindol]-3′(2′H)-one]
5.8 nM | 114 nM | CC1(C)c2cc(Cl)ccc2C(=O)N1c1cncc(OC2CC2)c1 [Example 306, 5-Chloro-2-(5-cyclopropoxy-pyridin-3-yl)-3,3-dimethyl-2,3-dihydro-isoindol-1-one]
813 nM | 6480 nM | NC1CCCc2c1cncc2N1Cc2cc(Cl)ccc2C1=O (stereo not drawn) [Example 311, 2-(8-Amino-5,6,7,8-tetrahydro-isoquinolin-4-yl)-5-chloro-2,3-dihydro-isoindol-1-one]
88.3 nM | 14200 nM | O=C1c2ccc(Cl)cc2CN1c1cncc2c1CCC[C@@H]2O [Example 340, 5-Chloro-2-((S)-8-hydroxy-5,6,7,8-tetrahydro-isoquinolin-4-yl)-2,3-dihydro-isoindol-1-one]
32.1 nM | 1680 nM | O=C1c2ccc(Cl)cc2CN1c1cncc2c1CCC[C@H]2O [Example 341, 5-Chloro-2-((R)-8-hydroxy-5,6,7,8-tetrahydro-isoquinolin-4-yl)-2,3-dihydro-isoindol-1-one]
25.8 nM | 370 nM | CC1(C)c2cc(Cl)ccc2C(=O)N1c1cncc(Cn2cccn2)c1 [Example 379, 5-Chloro-3,3-dimethyl-2-(5-pyrazol-1-ylmethyl-pyridin-3-yl)-2,3-dihydro-isoindol-1-one]
36.6 nM | 2420 nM | CC1(C)c2cc(Cl)ccc2C(=O)N1c1cncc(Cn2ccc(N)n2)c1 [Example 380, 2-[5-(3-Amino-pyrazol-1-ylmethyl)-pyridin-3-yl]-5-chloro-3,3-dimethyl-2,3-dihydro-isoindol-1-one]
3.4 nM | 138 nM | CC1(C)c2cc(Cl)ccc2C(=O)N1c1cncc(CNc2cc[nH]n2)c1 [Example 381, 5-Chloro-3,3-dimethyl-2-{5-[(1H-pyrazol-3-ylamino)-methyl]-pyridin-3-yl}-2,3-dihydro-isoindol-1-one]
33.9 nM | 1520 nM | Nc1ccn(Cc2cncc(N3CCc4cc(Cl)ccc4C3=O)c2)n1 [Example 382, 2-[5-(3-Amino-pyrazol-1-ylmethyl)-pyridin-3-yl]-6-chloro-3,4-dihydro-2H-isoquinolin-1-one]
21 nM | 771 nM | CC1(C)c2nc(Cl)ccc2C(=O)N1c1cncc(CNc2cc[nH]n2)c1 [Example 383, 2-Chloro-7,7-dimethyl-6-{5-[(1H-pyrazol-3-ylamino)-methyl]-pyridin-3-yl}-6,7-dihydro-pyrrolo[3,4-b]pyridin-5-one]
